Key:
Type in all cases: in vivo
[1] = test system: Chilo suppressalis; test: Activity against Chilo suppressalis (striped rice stemborer), artificial diet, L2 larvae; details: 144 h, application rate 200 ppm, 6 days after infestation, read-out: control in at least one of the three categories (mortality, anti-feedant effect, or growth inhibition)
In short: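 Artificial diet was treated with aqueous test solutions made from 10′000 ppm DMSO stocks, dried, then infested with 6-8 L2 larvae per well. Mortality, anti-feeding effect and growth inhibition were scored versus untreated samples 6 days after infestation; control means any category exceeds untreated.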

[2] = test system: Frankliniella occidentalis; test: Activity against Frankliniella occidentalis (western flower thrips), feeding/contact activity; details: 168 h, application rate 200 ppm, 7 days after infestation
Description: Example B4: Activity Against Frankliniella occidentalis (Western Flower Thrips). Feeding/Contact Activity
Sunflower leaf discs were placed on agar in 24-well microtiter plates and sprayed with aqueous test solutions prepared from […] stock solutions. After drying the leaf discs were infested with a Frankliniella population of mixed ages. The samples were assessed for mortality 7 days after infestation.

[3] = test system: Euschistus heros; test: Activity against Euschistus heros (neotropical brown stink bug), soybean leaves, N2 nymphs; details: 120 h, application rate 200 ppm, 5 days after infestation, read-out: effect in at least one of the two categories (mortality or growth inhibition)
Description: Example B3: Activity Against Euschistus heros (Neotropical Brown Stink Bug)
Soybean leaves on agar in 24-well microtiter plates were sprayed with aqueous test solutions prepared from 10′000 ppm DMSO stock solutions. After drying the leaves were infested with N2 nymphs. The samples were assessed for mortality and growth inhibition in comparison to untreated samples 5 days after infestation.

[4] = test system: Diabrotica balteata; test: Activity against Diabrotica balteata (corn root worm), maize sprouts, L2 larvae; details: 96 h, application rate 200 ppm, 4 days after infestation, read-out: control in at least one of the two categories (mortality or growth inhibition)
Description: Example B2: Activity Against Diabrotica Balteata (Corn Root Worm)
Maize sprouts placed onto an agar layer in 24-well microtiter plates were treated with aqueous test solutions prepared from 10′000 ppm DMSO stock solutions by spraying. After drying, the plates were infested with L2 larvae (6 to 10 per well). The samples were assessed for mortality and growth inhibition in comparison to untreated samples 4 days after infestation.

[5] = test system: Spodoptera littoralis; test: Activity against Spodoptera littoralis (Egyptian cotton leaf worm), cotton leaf discs, L1 larvae; details: foliar, 72 h, application rate 200 ppm, 3 days after infestation, read-out: control in at least one of the three categories (mortality, anti-feedant effect, or growth inhibition)
In short: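 Cotton leaf discs on agar sprayed with aqueous test solutions made from 10′000 ppm DMSO stocks, then infested with five L1 larvae once dry. Mortality, anti-feeding and growth inhibition scored versus untreated samples 3 days after infestation; control counted when any category exceeds untreated.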

[6] = test system: Plutella xylostella; test: Activity against Plutella xylostella (diamond back moth), artificial diet, eggs; details: 192 h, application rate 200 ppm, 8 days after infestation, read-out: control in at least one of the two categories (mortality or growth inhibition)
In short: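 Artificial diet was treated with aqueous dilutions of 10′000 ppm DMSO stocks, dried, then infested with Plutella eggs. Mortality and growth inhibition versus untreated samples were scored 8 days after infestation.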

[7] = test system: Myzus persicae; test: Activity against Myzus persicae (green peach aphid), feeding/contact activity; details: 144 h, application rate 200 ppm, 6 days after infestation
Description: Example B5: Activity Against Myzus persicae (Green Peach Aphid). Feeding/Contact Activity
Sunflower leaf discs were placed onto agar in a 24-well microtiter plate and sprayed with aqueous test solutions prepared from 10′000 ppm DMSO stock solutions. After drying, the leaf discs were infested with an aphid population of mixed ages. The samples were assessed for mortality 6 days after infestation.

[8] = test system: Myzus persicae; test: Activity against Myzus persicae (green peach aphid), systemic activity; details: 144 h, test rate 24 ppm, 6 days after placing seedlings into test solutions
Description: Example B9: Activity Against Myzus persicae (Green Peach Aphid). Systemic Activity
Roots of pea seedlings infested with an aphid population of mixed ages were placed directly into aqueous test solutions prepared from 10′000 DMSO stock solutions. The samples were assessed for mortality 6 days after placing seedlings into test solutions.

[9] = test system: Myzus persicae; test: Activity against Myzus persicae (green peach aphid), intrinsic activity; details: 120 h, test rate 12 ppm, 5 days after infestation
In short: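 Compounds diluted from 10′000 ppm DMSO stocks were mixed with sucrose solution under a stretched Parafilm membrane. Aphid-infested pea seedlings were set on the membrane and the plate was inverted so the aphids fed through it. Mortality was scored 5 days after infestation.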

[10] = test system: Tetranychus urticae; test: Activity against Tetranychus urticae (two-spotted spider mite), feeding/contact activity; details: 192 h
Description: Example B10: Activity Against Tetranychus urticae (Two-Spotted Spider Mite). Feeding/Contact Activity
Bean leaf discs on agar in 24-well microtiter plates were sprayed with aqueous test solutions prepared from 10′000 ppm DMSO stock solutions. After drying the leaf discs were infested with a mite population of mixed ages. The samples were assessed for mortality on mixed population (mobile stages) 8 days after infestation.

C[C@H](NC(=O)c1cc(C(F)(F)F)cc(C(F)(F)F)c1)c1ncnn1C1=NN(C)C(=O)CC1 [P2, N-[(1S)-1-[2-(1-methyl-6-oxo-4,5-dihydropyridazin-3-yl)-1,2,4-triazol-3-yl]ethyl]-3,5-bis(trifluoromethyl)benzamide]
≥ 80%: percent control (mortality, anti-feedant effect or growth inhibition) at 200 ppm [1] | mortality at 200 ppm [2] | percent effect (mortality or growth inhibition) at 200 ppm [3] | percent control (mortality or growth inhibition) at 200 ppm [4] | percent control (mortality, anti-feedant effect or growth inhibition) at 200 ppm [5] | percent control (mortality or growth inhibition) at 200 ppm [6] | mortality at 200 ppm [7]

C[C@@H](c1ncnn1-c1ccc(=O)n(C)n1)N(C)C(=O)c1cc(C(F)(F)F)cc(C(F)(F)F)c1 [P5, N-methyl-N-[(1S)-1-[2-(1-methyl-6-oxo-pyridazin-3-yl)-1,2,4-triazol-3-yl]ethyl]-3,5-bis(trifluoromethyl)benzamide]
≥ 80%: mortality at 24 ppm [8] | mortality at 12 ppm [9] | percent control (mortality, anti-feedant effect or growth inhibition) at 200 ppm [1] | percent effect (mortality or growth inhibition) at 200 ppm [3] | percent control (mortality or growth inhibition) at 200 ppm [4] | percent control (mortality, anti-feedant effect or growth inhibition) at 200 ppm [5] | percent control (mortality or growth inhibition) at 200 ppm [6] | mortality at 200 ppm [7]

CC(c1nccnc1-c1ccc(=O)n(C)n1)N(C)C(=O)c1cc(C(F)(F)F)cc(C(F)(F)F)c1 (stereo not drawn) [P6, N-methyl-N-[1-[3-(1-methyl-6-oxo-pyridazin-3-yl)pyrazin-2-yl]ethyl]-3,5-bis(trifluoromethyl)benzamide]
≥ 80%: mortality at 24 ppm [8] | mortality at 12 ppm [9] | percent control (mortality, anti-feedant effect or growth inhibition) at 200 ppm [1] | percent control (mortality or growth inhibition) at 200 ppm [4] | percent control (mortality, anti-feedant effect or growth inhibition) at 200 ppm [5] | percent control (mortality or growth inhibition) at 200 ppm [6] | mortality at 200 ppm [7]

C[C@H](NC(=O)c1cc(Cl)cc(S(C)(=O)=O)c1)c1ncnn1-c1ccc(=O)n(C)n1 [P9, 3-chloro-N-[(1S)-1-[2-(1-methyl-6-oxo-pyridazin-3-yl)-1,2,4-triazol-3-yl]ethyl]-5-methylsulfonyl-benzamide]
≥ 80%: mortality at 12 ppm [9] | mortality at 200 ppm [2] | percent effect (mortality or growth inhibition) at 200 ppm [3] | mortality at 200 ppm [7]

C[C@@H](c1ncnn1-c1ccc(=O)n(C)n1)N(C)C(=O)c1cc(Cl)cc(S(=O)(=O)C(F)(F)F)c1 [P18, 3-chloro-N-methyl-N-[(1S)-1-[2-(1-methyl-6-oxo-pyridazin-3-yl)-1,2,4-triazol-3-yl]ethyl]-5-(trifluoromethylsulfonyl) benzamide]
≥ 80%: mortality at 24 ppm [8] | mortality at 12 ppm [9] | percent control (mortality, anti-feedant effect or growth inhibition) at 200 ppm [1] | percent effect (mortality or growth inhibition) at 200 ppm [3] | percent control (mortality or growth inhibition) at 200 ppm [4] | percent control (mortality, anti-feedant effect or growth inhibition) at 200 ppm [5] | percent control (mortality or growth inhibition) at 200 ppm [6] | mortality at 200 ppm [7]

C[C@H](NC(=O)c1cc(Cl)cc(C(F)(F)F)c1)c1ncnn1C1=NN(C)C(=O)CC1 [P19, 3-chloro-N-[(1S)-1-[2-(1-methyl-6-oxo-4,5-dihydropyridazin-3-yl)-1,2,4-triazol-3-yl]ethyl]-5-(trifluoromethyl)benzamide]
≥ 80%: mortality at 200 ppm [10] | mortality at 12 ppm [9] | percent control (mortality, anti-feedant effect or growth inhibition) at 200 ppm [1] | mortality at 200 ppm [2] | percent effect (mortality or growth inhibition) at 200 ppm [3] | percent control (mortality or growth inhibition) at 200 ppm [4] | percent control (mortality, anti-feedant effect or growth inhibition) at 200 ppm [5] | percent control (mortality or growth inhibition) at 200 ppm [6]

C[C@H](NC(=O)c1cc(Br)cc(Br)c1)c1ncnn1-c1ccc(=O)n(C)n1 [P29, 3,5-dibromo-N-[(1S)-1-[2-(1-methyl-6-oxo-pyridazin-3-yl)-1,2,4-triazol-3-yl]ethyl]benzamide]
≥ 80%: mortality at 12 ppm [9] | percent control (mortality, anti-feedant effect or growth inhibition) at 200 ppm [1] | percent effect (mortality or growth inhibition) at 200 ppm [3] | percent control (mortality or growth inhibition) at 200 ppm [4] | percent control (mortality, anti-feedant effect or growth inhibition) at 200 ppm [5] | percent control (mortality or growth inhibition) at 200 ppm [6] | mortality at 200 ppm [7]

C[C@H](NC(=O)c1cc(Br)cc(I)c1)c1ncnn1-c1ccc(=O)n(C)n1 [P30, 3-bromo-5-iodo-N-[(1S)-1-[2-(1-methyl-6-oxo-pyridazin-3-yl)-1,2,4-triazol-3-yl]ethyl]benzamide]
≥ 80%: mortality at 12 ppm [9] | percent control (mortality, anti-feedant effect or growth inhibition) at 200 ppm [1] | percent effect (mortality or growth inhibition) at 200 ppm [3] | percent control (mortality or growth inhibition) at 200 ppm [4] | percent control (mortality, anti-feedant effect or growth inhibition) at 200 ppm [5] | percent control (mortality or growth inhibition) at 200 ppm [6] | mortality at 200 ppm [7]

CC(NC(=O)c1cc(C(F)(F)F)nc(C2(C#N)CC2)c1)c1nccnc1-c1ccc(=O)n(C)n1 (stereo not drawn) [P32, 2-(1-cyanocyclopropyl)-N-[1-[3-(1-methyl-6-oxo-pyridazin-3-yl)pyrazin-2-yl]ethyl]-6-(trifluoromethyl)pyridine-4-carboxamide]
≥ 80%: mortality at 12 ppm [9] | percent control (mortality, anti-feedant effect or growth inhibition) at 200 ppm [1] | percent effect (mortality or growth inhibition) at 200 ppm [3] | percent control (mortality or growth inhibition) at 200 ppm [4] | percent control (mortality, anti-feedant effect or growth inhibition) at 200 ppm [5] | percent control (mortality or growth inhibition) at 200 ppm [6] | mortality at 200 ppm [7]

C[C@H](NC(=O)c1cc(C(F)(F)F)nc(C2(C#N)CC2)c1)c1ncnn1-c1ccc(=O)n(C)n1 [P33, 2-(1-cyanocyclopropyl)-N-[(1S)-1-[2-(1-methyl-6-oxo-pyridazin-3-yl)-1,2,4-triazol-3-yl]ethyl]-6-(trifluoromethyl)pyridine-4-carboxamide]
≥ 80%: mortality at 12 ppm [9] | percent control (mortality, anti-feedant effect or growth inhibition) at 200 ppm [1] | percent effect (mortality or growth inhibition) at 200 ppm [3] | percent control (mortality or growth inhibition) at 200 ppm [4] | percent control (mortality, anti-feedant effect or growth inhibition) at 200 ppm [5] | percent control (mortality or growth inhibition) at 200 ppm [6] | mortality at 200 ppm [7]

C[C@H](NC(=O)c1cc(Br)cc(OC(F)(F)F)c1)c1ncnn1-c1ccc(=O)n(C)n1 [P40, 3-bromo-N-[(1S)-1-[2-(1-methyl-6-oxo-pyridazin-3-yl)-1,2,4-triazol-3-yl]ethyl]-5-(trifluoromethoxy)benzamide]
≥ 80%: mortality at 12 ppm [9] | percent control (mortality, anti-feedant effect or growth inhibition) at 200 ppm [1] | percent effect (mortality or growth inhibition) at 200 ppm [3] | percent control (mortality or growth inhibition) at 200 ppm [4] | percent control (mortality, anti-feedant effect or growth inhibition) at 200 ppm [5] | percent control (mortality or growth inhibition) at 200 ppm [6] | mortality at 200 ppm [7]

C[C@H](NC(=O)c1cc(C(F)(F)F)cc(C(C)(C)C#N)c1)c1ncnn1-c1ccc(=O)n(C)n1 [P43, 3-(1-cyano-1-methyl-ethyl)-N-[(1S)-1-[2-(1-methyl-6-oxo-pyridazin-3-yl)-1,2,4-triazol-3-yl]ethyl]-5-(trifluoromethyl)benzamide]
≥ 80%: mortality at 12 ppm [9] | percent control (mortality, anti-feedant effect or growth inhibition) at 200 ppm [1] | percent effect (mortality or growth inhibition) at 200 ppm [3] | percent control (mortality or growth inhibition) at 200 ppm [4] | percent control (mortality, anti-feedant effect or growth inhibition) at 200 ppm [5] | percent control (mortality or growth inhibition) at 200 ppm [6] | mortality at 200 ppm [7]

From patent publication US20250042875A1, “PESTICIDALLY ACTIVE PYRIDAZINONE COMPOUNDS” (SYNGENTA CROP PROTECTION AG, priority 2021, published 2025)
